Experimental data taken from ChEMBL document CHEMBL1125072, “Synthesis and biochemical evaluation of tritium-labeled 1-methyl-N-(8-methyl-8-azabicyclo[3.2.1]oct-3-yl)-1H-indazole-3-carboxa mide, a useful radioligand for 5HT3 receptors” (J Med Chem, 1990).

Columns and labels:
[1] = target: T1, Serotonin 3 (5-HT3) receptor (Rattus norvegicus, UniProt P35563+Q9JJ16); experiment: pKi value for inhibition of [3H]LY-278584 binding to 5-hydroxytryptamine 3 receptor; assay type: protein-complex assay
T1 sequence (P35563 whole entry): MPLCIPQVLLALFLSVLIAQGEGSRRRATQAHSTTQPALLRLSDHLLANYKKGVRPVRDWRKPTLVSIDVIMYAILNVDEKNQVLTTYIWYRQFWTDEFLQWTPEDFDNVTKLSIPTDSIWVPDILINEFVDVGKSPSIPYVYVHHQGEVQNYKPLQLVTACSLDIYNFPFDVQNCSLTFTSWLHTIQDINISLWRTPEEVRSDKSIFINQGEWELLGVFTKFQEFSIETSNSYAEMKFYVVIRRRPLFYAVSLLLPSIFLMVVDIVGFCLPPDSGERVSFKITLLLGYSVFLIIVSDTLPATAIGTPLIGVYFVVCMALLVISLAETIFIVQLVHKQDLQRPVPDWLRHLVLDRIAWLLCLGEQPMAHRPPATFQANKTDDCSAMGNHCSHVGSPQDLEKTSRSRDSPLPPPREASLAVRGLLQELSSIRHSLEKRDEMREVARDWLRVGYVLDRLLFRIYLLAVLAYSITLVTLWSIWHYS
T1 sequence (Q9JJ16 whole entry): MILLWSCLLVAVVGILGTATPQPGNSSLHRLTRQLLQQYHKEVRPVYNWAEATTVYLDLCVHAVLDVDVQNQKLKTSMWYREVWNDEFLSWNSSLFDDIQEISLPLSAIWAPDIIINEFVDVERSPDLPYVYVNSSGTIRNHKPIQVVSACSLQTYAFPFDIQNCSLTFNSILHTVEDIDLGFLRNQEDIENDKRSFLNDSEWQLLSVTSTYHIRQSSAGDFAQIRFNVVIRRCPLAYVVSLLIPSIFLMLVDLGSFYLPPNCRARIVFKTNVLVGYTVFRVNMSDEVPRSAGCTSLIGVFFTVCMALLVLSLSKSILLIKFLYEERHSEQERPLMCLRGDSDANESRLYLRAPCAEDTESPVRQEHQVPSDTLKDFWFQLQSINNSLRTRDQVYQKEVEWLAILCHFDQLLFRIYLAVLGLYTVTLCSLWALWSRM

[2] = target: T1, Serotonin 3 (5-HT3) receptor; experiment: Inhibitory activity against 5-hydroxytryptamine 3 receptor in rat cortical membranes using [3H]- 1-Methyl-1H-indazole-3-carboxylic acid (8-methyl-8-aza-bicyclo[3.2.1]oct-3-yl)-amide as a radioligand; assay type: cell membranes
[3] = target: T2, 5-hydroxytryptamine receptor 1A (Rattus norvegicus, UniProt P19327); experiment: Inhibitory activity against 5-hydroxytryptamine 1A receptor in rat cortical membranes using [3H]8-OH-DPAT as a radioligand; assay type: cell membranes
T2 sequence (P19327 whole entry): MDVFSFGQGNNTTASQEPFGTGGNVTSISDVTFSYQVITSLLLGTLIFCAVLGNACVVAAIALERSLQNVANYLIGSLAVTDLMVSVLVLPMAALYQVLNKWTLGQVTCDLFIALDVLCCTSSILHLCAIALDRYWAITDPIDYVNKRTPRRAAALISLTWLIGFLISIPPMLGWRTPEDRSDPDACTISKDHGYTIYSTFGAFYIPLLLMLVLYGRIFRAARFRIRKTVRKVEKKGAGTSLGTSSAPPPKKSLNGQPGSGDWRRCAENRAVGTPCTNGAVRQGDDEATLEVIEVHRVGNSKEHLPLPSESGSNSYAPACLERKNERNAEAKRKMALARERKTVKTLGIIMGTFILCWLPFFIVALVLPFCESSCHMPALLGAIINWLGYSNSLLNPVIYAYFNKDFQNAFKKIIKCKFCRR

[4] = target: 5-hydroxytryptamine receptor 1B (Rattus norvegicus, UniProt P28564); experiment: Inhibitory activity against 5-hydroxytryptamine 1B receptor in rat cortical membranes using [3H]5-HT as a radioligand; assay type: cell membranes
Sequence of 5-hydroxytryptamine receptor 1B (P28564 whole entry): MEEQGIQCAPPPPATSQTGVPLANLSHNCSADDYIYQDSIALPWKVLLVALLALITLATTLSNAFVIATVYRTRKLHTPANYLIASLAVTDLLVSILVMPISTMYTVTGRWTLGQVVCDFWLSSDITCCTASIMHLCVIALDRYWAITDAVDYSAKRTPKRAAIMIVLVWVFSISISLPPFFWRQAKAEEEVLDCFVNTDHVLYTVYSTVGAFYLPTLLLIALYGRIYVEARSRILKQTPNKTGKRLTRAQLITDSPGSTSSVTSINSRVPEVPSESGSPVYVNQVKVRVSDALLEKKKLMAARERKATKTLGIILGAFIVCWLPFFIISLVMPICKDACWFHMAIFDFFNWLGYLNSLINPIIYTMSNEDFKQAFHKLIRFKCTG

[5] = system: Rattus norvegicus; experiment: Effective dose required to reduce von benzold jarisch reflex response to 5-HT was determined; Value ranges from 10-30 ug/Kg; assay type: functional
[6] = system: Rattus norvegicus; experiment: Percentage inhibition 5-HT- mediated bradycardia in rat after 3 ug/Kg of compound administered intravenously; assay type: functional

| SMILES | Ki [1] [nM] | Ki [2] [nM] | Ki [3] [nM] | Ki [4] [nM] | ED50 [5] [mg/kg] | Inhibition [6] [%] |
| --- | --- | --- | --- | --- | --- | --- |
| CN1C2CCC1CC(NC(=O)c1n[nH]c3ccccc13)C2 (stereo not drawn) | 4.27 | 4.26 | – | – | – | – |
| CN1C2CCC1CC(NC(=O)c1c3ccccc3nn1C)C2 (stereo not drawn) | 1050 | 1050 | – | – | – | – |
| CN1[C@@H]2CC[C@H]1C[C@@H](OC(=O)c1cc(Cl)cc(Cl)c1)C2 [BEMESETRON] | 25.7 | 26 | – | – | – | – |
| CN1C2CCCC1CC(NC(=O)c1nn(C)c3ccccc13)C2 (stereo not drawn) [GRANISETRON] | – | – | > 1000 | > 1000 | 0.01 | – |
| CCN(CC)CCNC(=O)c1cc(Cl)c(N)cc1OC [METOCLOPRAMIDE] | 501 | 502 | – | – | – | – |
| c1ccc2nc(N3CCNCC3)ccc2c1 [QUIPAZINE] | 3.02 | 3.04 | – | – | – | – |
| CN1[C@@H]2CC[C@H]1C[C@@H](OC(=O)c1c[nH]c3ccccc13)C2 [TROPISETRON] | 1.29 | 1.28 | – | – | – | 66 |
| COc1cc(N)c(Cl)cc1C(=O)NC1CN2CCC1CC2 (stereo not drawn) [ZACOPRIDE] | 0.417 | 0.42 | – | – | – | – |
